Measurements from publication PMC5075098, “Preclinical Evaluation of the Stability, Safety, and Efficacy of CD101, a Novel Echinocandin” (Antimicrobial Agents and Chemotherapy, 2016).
Converted amounts (≈) assume the structure as drawn. Where two headings read alike, the source gives them in different places. Each block holds one compound with its values, some of them ahead of it. Starred links: 1 amine or outer side, 2 acyl side, 3 side chain; linkers in the order of their positions; H or OH if unused. Positions of bridges follow the written chain, without caps; N, C: chain ends. Non-standard residues stand in square brackets, D forms with d. Residues, ends and D or L forms follow the SMILES beside them. *: point of attachment. pTerphenylCO(4''-OnC5H11) = CCCCCOc1ccc(-c2ccc(-c3ccc(C(=O)*)cc3)cc2)cc1; Orn(4R-OH,5R-OH) = O=C([C@H](C[C@@H](O)[C@@H](O)N[*:3])N[*:1])[*:2]; hTyr(3S-OH,4S-OH) = N[C@H](C(=O)O)[C@H](O)[C@@H](O)c1ccc(O)cc1; Pro(3S-OH,4S-Me) = C[C@H]1CN[C@H](C(=O)O)[C@H]1O; Hyp = O=C(O)[C@@H]1C[C@@H](O)CN1

How the values were obtained:
[1] = system: A. fumigatus (ATCC 13073); test: Neutropenic mouse model of A. fumigatus infection, survival; details: BID for 5 days; CD101 all dose groups and anidulafungin 1 and 5 mg/kg i.v. (P < 0.05); amphotericin B 0.3 mg/kg i.p.
[2] = Plasma protein binding, ultracentrifugation; format: in vitro ADME; details: human, ∼500,000 × g 2.5 h at 37°C, LC-MS/MS, SEM, read-out: % of protein bound (SEM) (converted)
Method: Ultracentrifugation ([15]) was used to compare human plasma protein binding of CD101 and anidulafungin. […] Following ultracentrifugation, the supernatant was transferred to a microtiter plate containing 50 μl plasma for matrix-matching purposes and quenched with 400 μl of cold acetonitrile (ACN) with 0.1% formic acid containing diclofenac as an internal standard. Quenched samples were centrifuged for 5 min at 10°C (e.g., 3,100 rpm [2,000 × g]) to sediment the precipitated proteins, and 50 μl supernatant was transferred to a microtiter plate containing 100 μl of water prior to analysis by LC-MS/MS. The percentage bound was the difference between 100% and the percentage free (the ratio of the concentration in supernatant to the total concentration).

[3] = 2-week repeat-dose toxicity and hepatotoxicity screening; format: in vivo, Sprague-Dawley rats
Method: Dosing solutions were prepared in a vehicle comprising 5% mannitol containing 2.5% polysorbate 80 (Tween 80) in 0.3% acetic acid.
Animals were randomly assigned to dose groups and stratified by weight to achieve similar group mean body weights (males, 255 to 318 g; females, 192 to 215 g). Blood, urine, and liver samples (excised and preserved in 10% neutral buffered formalin) were obtained on day 15. Plasma liver enzyme levels were assessed. Liver tissues were processed to paraffin blocks and prepared for slides. Slides were stained with hematoxylin and eosin. Hematology data were collected using the Advia 120 hematology analyzer. Coagulation data were collected using the Diagnostica STA compact coagulation analyzer. Clinical chemistry data were collected using the AU400 chemistry analyzer. Qualitative and quantitative urinalysis was recorded using iRICELL 1500 UA analyzer. Clinical effects were assessed for determination of the maximum tolerated dose (MTD).
Statistical evaluations were performed on in-life and clinical pathology numerical data to determine statistical significance following a decision tree. First, the homogeneity of the data was determined by Bartlett's test. If the data were homogeneous, a one-way analysis of variance was performed to assess statistical significance. If statistically significant differences between the means were found, Dunnett's test was used to determine the degree of significance from the control means (P < 0.05, P < 0.01, and P < 0.001). If the data were nonhomogeneous, the Kruskal-Wallis nonparametric analysis was performed to assess statistical significance. If statistically significant differences between the means were found (P < 0.05, P < 0.01, and P < 0.001), the Mann-Whitney U test was used to determine the degree of significance from the control means (P < 0.05, P < 0.01, and P < 0.001).

[4] = Reactive metabolite screening (glutathione trapping); format: in vitro ADME; details: PBS pH 7.4, excess GSH, 37°C, LC with high-resolution MS
Method: Samples were diluted to 10 μg/ml into 50:50 acetonitrile-water with 0.1 formic acid. Samples were analyzed by LC (Agilent 1100) with high-resolution MS (Waters quadrupole time of flight [Q-TOF] Premier mass spectrometer with electrospray interface) with concurrent low- and high-energy scans to obtain full-scan parent and product fragment ions. The analytical column was a Phenomenex Kinetex (2.6-μm C18, 100 by 3.0 mm). Waters MassLynx 4.1 software was used for data analysis.

C. albicans R303 [5] = details: CLSI broth microdilution, read after 24 h at 35°C, prominent growth inhibition (∼50%)
[6] = after 44 h; cited from earlier work
Excerpt: CD101, a novel echinocandin being developed as a high-exposure, once-weekly intravenous (i.v.) formulation for the treatment and prevention of systemic fungal infections, was designed to be chemically and metabolically stable to avoid hepatotoxicity while retaining the antifungal activity of an echinocandin.

[7] = system: A. fumigatus (ATCC 13073); test: MEC/MIC, CLSI broth microdilution; details: 24 h at 35°C, rounded/compact hyphal morphology
C. albicans R303 [8] = test: Neutropenic mouse model of C. albicans infection, kidney colony counts
Method: Immunosuppression was induced by two intraperitoneal (i.p.) injections of cyclophosphamide at 150 mg/kg 4 days before and 100 mg/kg 1 day before inoculation. […] The animals in the fluconazole group were sacrificed 48 h after infection.

C. albicans R303 [9] = test: microbe, parasite or virus in culture; details: Candida albicans, R303, 24 h
[10] = anidulafungin 40 mg/kg/day i.v. 14 days, rats, relative to controls, P ≤ 0.001
[11] = anidulafungin 40 mg/kg/day i.v. 14 days, rats, P ≤ 0.001
[12] = anidulafungin 40 mg/kg/day i.v. 14 days, rats, P ≤ 0.01

Compound: C[C@@H]1[C@H](O)[C@@H](C)/C=C/C=C/C=C/C=C/C=C/C=C/C=C/[C@H](O[C@@H]2O[C@H](C)[C@@H](O)[C@H](N)[C@@H]2O)C[C@@H]2O[C@](O)(C[C@@H](O)C[C@@H](O)[C@H](O)CC[C@@H](O)C[C@@H](O)CC(=O)O[C@H]1C)C[C@H](O)[C@H]2C(=O)O [amphotericin B, reference compound]
- 10-day survival rate compared to the vehicle group [1]: significant increase

Compound: CCCCCOc1ccc(-c2ccc(-c3ccc(C(=O)N[C@H]4C[C@@H](O)[C@@H](O)NC(=O)[C@@H]5[C@@H](O)[C@@H](C)CN5C(=O)[C@H]([C@@H](C)O)NC(=O)[C@H]([C@H](O)[C@@H](O)c5ccc(O)cc5)NC(=O)[C@@H]5C[C@@H](O)CN5C(=O)[C@H]([C@@H](C)O)NC4=O)cc3)cc2)cc1 [anidulafungin] ({pTerphenylCO(4''-OnC5H11)}-[Orn(4R-OH,5R-OH)]T[Hyp][hTyr(3S-OH,4S-OH)]T[Pro(3S-OH,4S-Me)]; lactam 1-C)
- fraction unbound ([2]; 1 μg/ml): 0.022
- fraction unbound ([2]; 5 μg/ml): 0.014
- repeat-dose systemic or target organ toxicity ([3]; 14-day i.v. infusion, rats, CD101 20 mg/kg/day, anidulafungin 40 mg/kg/day (comparable exposure)): severe hemolytic anemia and liver toxicity
- spleen finding upon necropsy ([3]; anidulafungin 40 mg/kg/day i.v. 14 days, rats): dark and enlarged spleens
- increase in mean alkaline phosphatase (ALP) [3, 10]: up to 47%
- increase in mean aspartate aminotransferase (AST) [3, 10]: up to 68%
- increase in total bilirubin [3, 10]: up to 2 fold
- increase in mean alanine transaminase (ALT) ([3]; anidulafungin 40 mg/kg/day i.v. 14 days, rats, relative to controls, P ≤ 0.05): up to 27%
- decrease in the albumin/globulin ratio [3, 11]: up to 15%
- increases in platelets [3, 11]: up to 44%
- increases in reticulocyte (polychromasia), neutrophil, and eosinophil counts [3, 11]: up to 4 fold
- decreases in activated partial thromboplastin time [3, 12]: up to 23%
- decreases in red blood cells (RBC), hemoglobin, and hematocrit [3, 12]: up to 19%
- increases in globulin [3, 12]: up to 19%
- increases in serum cholesterol [3, 12]: up to 52%
- reduced body weights and food consumption, decrease relative to controls ([3]; anidulafungin 40 mg/kg/day i.v. infusion 14 days, rats, P ≤ 0.05): up to 9%
- microscopic changes in the liver ([3]; day 15, H&E, CD101 2, 6, or 20 mg/kg/day, anidulafungin 40 mg/kg/day (some of the females)): minimal to moderate single-cell necrosis affecting the hepatocytes
- GSH adduct formation (reactive intermediate) [4]: did form a GSH adduct
- MIC (C. albicans R303 [5]): 0.03 µg/mL (≈ 0.0263 µM)
- % remaining in human plasma [6]: 7%
- MEC [7]: 0.004 µg/mL
- 10-day survival rate compared to the vehicle group [1]: significant increase
- log reduction in CFU per gram relative to vehicle (C. albicans R303 [8]; 0.6 mg/kg single i.v. dose, 24, 48, 72 h): up to 2.7 log
- antimicrobial effect (≥99%, 2-log reduction in CFU per gram) (C. albicans R303 [8]; anidulafungin 0.6 mg/kg i.v., at 24 and 48 h): significant

- MIC (C. albicans R303 [9]): 2 µg/mL (≈ 6.53 µM)
Compound: OC(Cn1cncn1)(Cn1cncn1)c1ccc(F)cc1F [fluconazole, reference compound]
- reduction in CFU per gram of paired kidneys relative to vehicle (C. albicans R303 [8]; 20 mg/kg oral, 2 h after infection, 48 h): 87%
- log reduction in CFU per gram relative to vehicle (C. albicans R303 [8]; 20 mg/kg oral, 48 h): 1.1 log
